According to article PMC7918738, “Microtubule Destabilizing Sulfonamides as an Alternative to Taxane-Based Chemotherapy” (International Journal of Molecular Sciences, 2021):
Values after ≈ are worked out from the molar mass of the structure shown.

Columns and labels:
[1] = test system: HeLa (cervix epithelioid carcinoma); assay: Antiproliferative activity against HeLa (XTT colorimetric method); type: cell-based; details: Homo sapiens, 72 h treatment
Method: (§1) The in vitro antiproliferative activity of MDS at 1 µM after 72 h treatments was evaluated by a colorimetric method against the human tumor cell lines HeLa (cervix epithelioid carcinoma) and MCF7 (breast adenocarcinoma). Compounds showing more than 40% inhibition at 1 µM in at least three independent assays were evaluated in a range of concentrations between 0.1 nM and 10 µM for the determination of half-maximal inhibitory concentrations (IC50) (Table 1). Paclitaxel, CA-4, and ABT-751 were used as references.
(§2) MCF7 (human breast carcinoma), SKOV-3 (human ovarian carcinoma), OVCAR-3 (human ovarian carcinoma), OVCAR-8 (human ovarian carcinoma), and HeLa (human cervical carcinoma) cell lines were cultured in Dulbecco’s Modified Eagle’s Medium (DMEM) (Gibco, Thermo Fischer Scientific) containing 10% (v/v) heat-inactivated fetal bovine serum (HIFBS) (Lonza-Cambrex, Karlskoga, Sweden), 2 mM L-glutamine (Lonza-Cambrex, Karlskoga, Sweden), 100 μg/mL streptomycin, and 100 IU/mL penicillin (Lonza-Cambrex) at 37 °C in humidified 95% air and 5% CO2. HT-29 (human colon carcinoma), IGROV-1 (human ovarian carcinoma), and A2780 (human ovarian carcinoma) cell lines were cultured in RPMI 1640 medium (Gibco, Thermo Fischer Scientific) supplemented with 10% HIFBS, 100 μg/mL streptomycin, and 100 IU/mL penicillin at 37 °C in humidified 95% air and 5% CO2 atmosphere. The presence of mycoplasma was routinely checked with MycoAlert kit (Lonza-Cambrex) and only mycoplasma-free cells were used in the experiments. Ovarian tumor cell lines were originally acquired from Dr Atanasio Pandiella from Centro de Investigación del Cáncer (CIC), Salamanca, Spain. HeLa, HT-29 and MCF7 tumor cell lines were provided by Dr Faustino Mollinedo from Centro de Investigaciones Biológicas Margarita Salas, Madrid, Spain.
(§3) MCF7, HeLa, and HT-29 cell proliferation, when treated with the corresponding compounds, were determined using the XTT (sodium 3’-[1(phenylaminocarbonyl)-3,4-tetrazolium]-bis(4-methoxy-6-nitro)-benzenesulfonic acid hydrate) cell proliferation kit (Roche Molecular Biochemicals, Mannheim, Germany). A freshly prepared mixture of XTT labeling reagent with 0.02% (v/v) PMS (N-methyl-dibenzopyrazine methyl sulfate) electron coupling reagent was added to cells (50 µL/well in 96-well plates, total volume of 160 µL/well). Cells were incubated under standard culture conditions for 4 h (MCF7 and HeLa) or 6 h (HT-29). The absorbance of the formazan product generated was measured at 450 nm using a multi-well plate reader. SKOV-3, OVCAR-3, OVCAR-8, IGROV-1, A-2780 cell proliferation, when treated with the corresponding compound, were determined using MTT (3-(4,5-dimethylthiazol-2-yl)-2,5-diphenyl-2H-tetrazolium bromide) (Sigma-Aldrich, St. Louis, MO, USA). MTT in Phosphate Buffer Saline (PBS) (5 mg/ml) was added to cells (110 µL/well in 24-well plates, total volume of 1110 µL/well). After 1 hour of incubation, the medium was aspirated, and formazan violet crystals were dissolved in dimethyl sulfoxide (DMSO) (500 µL/well). Absorbance was measured at 570 nm in a plate reader (Ultra Evolution, Tecan, Männedorf, Suiza). To determine cell viability, cells in exponential growth phase were seeded (100 µL/well in 96-well plates and 1000 µL/well in 24-well plates) with appropriate cell line concentration (1.5·10^4 cells/mL for MCF7 and HeLa, 3·10^4 cells/mL for HT-29, and 1·10^4 cells/mL for SKOV-3, OVCAR-3, OVCAR-8, IGROV-1, and A-2780) in complete RPMI 1640 or DMEM medium at 37°C and 5% CO2 atmosphere. After 24 h incubation, to allow cells to attach to the plates, all compounds were added at 1 µM concentration and the effect on the proliferation was evaluated 72 h post-treatment. Compounds showing antiproliferative effects at tested concentration were selected for IC50 calculation (50% inhibitory concentration with respect to the untreated controls) from 10^−5 to 10^−10 M concentration. Non-linear curves fitting the experimental data were carried out for each compound. […]

[2] = test system: MCF7 (breast adenocarcinoma); assay: Antiproliferative activity against MCF7 (XTT colorimetric method); type: cell-based; details: Homo sapiens, 72 h treatment
Method: as §1, §2, §3

[3] = test system: tubulin (microtubular protein isolated from calf brain); assay: Tubulin Polymerization Inhibition (TPI) assay, turbidity; type: biochemical; details: 1.5 mg/mL microtubular protein
Method: The effect of all the synthesized compounds on the in vitro tubulin polymerization was evaluated at 10 µM. All the compounds that inhibited polymerization more than 30% were also assayed at 20 µM. IC50 values were calculated for those compounds inhibiting tubulin polymerization by at least 50% at 20 µM (Table 1 and Supplemental Figure S2).
Microtubular protein was isolated from calf brain according to the modified Shelanski method by two cycles of temperature-dependent assembly/disassembly and stored at −80 °C. Before each use, protein concentration was determined by the Bradford method taking BSA as standard.
Tubulin polymerization was monitored using a Helios α spectrophotometer by measuring the increase in turbidity at 450 nm, caused by a shift from 4 °C to 37 °C, which allows the in vitro microtubular protein to depolymerize and polymerize, respectively. The assay was carried out in quartz cuvettes containing 1.5 mg/mL microtubular protein and the ligand (except for control cuvette with only DMSO at the same concentration) in a mixture of 0.1 M MES buffer, 1 mM EGTA, 1 mM MgCl2, 1 mM β-ME, and 1.5 mM GTP at pH 6.7 (final volume 500 µL). Cuvettes were preincubated at 20 °C for 30 min, to allow ligand binding to tubulin, and subsequently cooled on ice for 10 min. Then, the experiment starts at 4 °C to establish the initial baseline. The assembly process was initiated by a temperature shift to 37 °C and the turbidity produced by tubulin polymerization can be measured by an absorbance increase. After reaching a stable plateau, the temperature was switched back to 4 °C to return to the initial absorption values (to confirm the reversible nature of the monitored process and to determine whether or not the microtubular tubular protein has stabilized). The difference in amplitude between the stable plateau and the initial baseline of the curves was taken as the degree of tubulin polymerization for each experiment. Comparison with control curves under identical conditions but without ligands yielded TPI as a percentage value. All compounds were tested at 10 µM concentration. Compounds that inhibited tubulin polymerization by at least 30% at 10 µM were tested at 20 µM. IC50 values were calculated for compounds that inhibit tubulin polymerization by more than 50% at 20 µM. Compounds were dissolved in DMSO, and the final solvent concentration never exceeded 4% (v/v), which has been reported not to interfere with the assembly process. All the measurements were carried out in at least two independent experiments using microtubular protein from different preparations.

[4] = Aqueous solubility, saturation shake-flask method, UV absorbance; details: pH 7, aqueous buffer, thermodynamic from solid
Method: UV absorbance at three maximum absorbance wavelengths of selected compounds was measured after 48 h shaking and subsequent microfiltration.
The aqueous solubility of the sulfonamides was determined using an approach based on the saturation shake-flask method. Tested compounds (1–2 mg) were stirred in pH 7.0 phosphate buffer (300 µL) for 48 h at room temperature. The resulting suspension was filtered over a 45 µm filter to discard insoluble residues, and the concentration in the supernatant was measured by UV absorbance. To determine the concentration, a scan between 270 and 400 nm was performed in a Helios-α UV-320 Spectrophotometer (Thermo-Spectronic, Thermo Fischer Scientific, Waltham, MA, USA) for each tested compound. Then, three maximum wavelengths of absorbance per compound were selected from the previous scan and calibration curves were performed at these three wavelengths. Solubility results are given as the average of the three measurements.

[5] = test system: HT-29 (colon adenocarcinoma); assay: Antiproliferative activity against CA-4-resistant HT-29 with or without verapamil (sensitivity to MDR pumps, XTT); type: cell-based, human; details: verapamil alone at 10 µM
Text: Detecting changes in drug potency when inhibiting MDR-mediated efflux reflect that these transporters reduce the intracellular drug concentration. HT-29 has been reported to express moderate levels of MDR1, accounting for a resistant phenotype. A comparison of the antiproliferative IC50 values of each MDS in the presence or absence of verapamil provides an estimate of the susceptibility of each compound to efflux pumps.
as §2
MCF7, HeLa, and HT-29 cell proliferation, when treated with the corresponding compounds, were determined using the XTT (sodium 3’-[1(phenylaminocarbonyl)-3,4-tetrazolium]-bis(4-methoxy-6-nitro)-benzenesulfonic acid hydrate) cell proliferation kit (Roche Molecular Biochemicals, Mannheim, Germany). A freshly prepared mixture of XTT labeling reagent with 0.02% (v/v) PMS (N-methyl-dibenzopyrazine methyl sulfate) electron coupling reagent was added to cells (50 µL/well in 96-well plates, total volume of 160 µL/well). Cells were incubated under standard culture conditions for 4 h (MCF7 and HeLa) or 6 h (HT-29). The absorbance of the formazan product generated was measured at 450 nm using a multi-well plate reader. SKOV-3, OVCAR-3, OVCAR-8, IGROV-1, A-2780 cell proliferation, when treated with the corresponding compound, were determined using MTT (3-(4,5-dimethylthiazol-2-yl)-2,5-diphenyl-2H-tetrazolium bromide) (Sigma-Aldrich, St. Louis, MO, USA). MTT in Phosphate Buffer Saline (PBS) (5 mg/ml) was added to cells (110 µL/well in 24-well plates, total volume of 1110 µL/well). After 1 hour of incubation, the medium was aspirated, and formazan violet crystals were dissolved in dimethyl sulfoxide (DMSO) (500 µL/well). Absorbance was measured at 570 nm in a plate reader (Ultra Evolution, Tecan, Männedorf, Suiza). To determine cell viability, cells in exponential growth phase were seeded (100 µL/well in 96-well plates and 1000 µL/well in 24-well plates) with appropriate cell line concentration (1.5·10^4 cells/mL for MCF7 and HeLa, 3·10^4 cells/mL for HT-29, and 1·10^4 cells/mL for SKOV-3, OVCAR-3, OVCAR-8, IGROV-1, and A-2780) in complete RPMI 1640 or DMEM medium at 37°C and 5% CO2 atmosphere. After 24 h incubation, to allow cells to attach to the plates, all compounds were added at 1 µM concentration and the effect on the proliferation was evaluated 72 h post-treatment. […] Non-linear curves fitting the experimental data were carried out for each compound. Compounds were dissolved in DMSO and the final solvent concentrations never exceeded 0.5% (v/v). The control wells included […] with 0.5% (v/v) DMSO and the positive control. 10 µM verapamil was included as a control for the HT-29 cell line.

Structure (SMILES) | IC50 [1] | IC50 [2] | IC50 [3] | TPI % 10 µM ([3]; compound at 10 µM) | solubility at 48 h [4] | Effect on HT-29 cell proliferation [5]
COc1ccc(S(=O)(=O)Nc2cccnc2Nc2ccc(O)cc2)cc1 [ABT-751, reference compound] | 388 nM | 180 nM | 4400 nM | 69% | 40 µg/mL (≈ 108 µM) | 
COc1ccc(CCN(C)CCCC(C#N)(c2ccc(OC)c(OC)c2)C(C)C)cc1OC (stereo not drawn) [verapamil, reference compound] |  |  |  |  |  | did not affect cell proliferation
